Key:
[1] = system: H226 (BAP1mut, UHRF1high, TP53WT, CDKN2Adel, FGFRhigh) subcutaneous mesothelioma xenograft; experiment: H226 subcutaneous mesothelioma xenograft model (Example 22); format: in vivo, mice; conditions: for RTV @ D 39: mean ± SEM
Experimental: (§1) A subcutaneous xenograft tumor model of human tumor immunodeficient mice was established by cell inoculation: tumor cells in logarithmic growth phase were collected, counted, resuspended in 1×PBS, and the cell suspension concentration was adjusted to 2.5-5×10^7/mL. The tumor cells were inoculated subcutaneously in the right side of immunodeficient mice with a 1 ml syringe ([…]), 5-10×10^6/0.2 mL/mouse. All animal experiments were strictly in accordance with the specifications for the use and management of experimental animals in GenePharma Co., Ltd. and Suzhou Ascentage Pharma Co., Ltd. The calculation of relevant parameters refers to the Chinese NMPA “Guidelines for Non-Clinical Research Techniques of Cytotoxic Anti-tumor Drugs”.
(§2) Animal body weight and tumor size were measured twice weekly during the experiment. The state of the animal and the presence or absence of death were observed every day. The growth of tumor and the effects of treatment on normal behavior of animals were monitored routinely, specifically involving experimental animal activity, feeding and drinking, weight gain or loss, eyes, clothing hair and other abnormalities. The deaths and clinical symptoms observed during the experiment were recorded in the raw data. All operations for administration and measurement of mouse body weight and tumor volume were performed in a clean bench. According to the requirements of the experimental protocol, after the end of the last administration, plasma and tumor tissues were collected, weighed and photographed. The plasma and tumor samples were frozen at −80° C. for ready-to-use.
(§3) Tumor volume (TV) is calculated as: TV=a×b^2/2, wherein a and b represent the length and width of the tumor to be measured, respectively.
(§4) The relative tumor volume (RTV) is calculated as: RTV=Vt/V1, wherein V1 is the tumor volume at the start of grouping and administration, and Vt is the tumor volume measured on the t day after administration.
(§5) The evaluation index of anti-tumor activity is the relative tumor proliferation rate T/C (%), and the calculation formula thereof is: relative tumor proliferation rate T/C (%)=(TRTV/CRTV)×100%, TRTV is the RTV of treatment group, CRTV is the RTV of solvent control group.
Change of body weight (%)=(measured body weight-body weight at the start of grouping)/body weight at the start of grouping×100%.
(§6) A dose of drug is considered to be severely toxic if the body weight of mouse is reduced by more than 20% or the number of drug-related deaths exceeds 20%.
In this experiment, H226 (BAP1mut, UHRF1high, TP53WT, CDKN2Adel, FGFRhigh) subcutaneous mesothelioma xenograft model was established to evaluate the anti-tumor effect of Compound 73 in combination with Compound C. The dosing regimen was as follows: • Compound C: 50 mg/kg, orally, every other day, for a total of 39 days; • Compound 73: 50 mg/kg, orally, once per day, for a total of 39 days; • Compound 73: 100 mg/kg, orally, once per day, for a total of 39 days.

[2] = system: LnCap prostate xenograft; experiment: Subcutaneous LnCap prostate xenograft model (Example 25); format: in vivo, mice; conditions: day 17
Experimental: as §1, §2, §3, §4, §5, §6
(§7) According to the description by Clarke R., Issues in experimental design and endpoint analysis in the study of experimental cytotoxic agents in vivo in breast cancer and other models [J]. Breast Cancer Research & Treatment, 1997, 46(2-3): 255-278, synergy analysis was evaluated using the following formula: synergy factor=((A/C)×(B/C))/(AB/C); A=RTV value of drug A alone group; B=RTV value of drug B alone group; C=RTV value of the solvent control group, and AB=RTV value of the A and B combination group.
In this experiment, subcutaneous LnCap prostate xenograft model was established to evaluate the anti-tumor effect of Compound 73 in combination with Compound C. The dosing regimen was as follows: • Compound C: 100 mg/kg, orally, every other day, for day 1-day 9; 50 mg/kg, orally, every other day, for day 10-day 28; • Compound 73: 100 mg/kg, orally, once per day, for a total of 28 days;
The dosing regimen of each drug in the dosing regimen for the combination is the same as the dosing regimen for the single drug, for a total of 28 days.

[3] = molecular target: T1, EED (1-441)-His protein (Homo sapiens, UniProt O75530); experiment: EED-H3K27Me3 peptide competition binding assay by AlphaScreen; conditions: Table 4A, read-out: Alpha screen
T1 construct: 20 nM EED (1-441)-His protein
T1 sequence (O75530 whole entry): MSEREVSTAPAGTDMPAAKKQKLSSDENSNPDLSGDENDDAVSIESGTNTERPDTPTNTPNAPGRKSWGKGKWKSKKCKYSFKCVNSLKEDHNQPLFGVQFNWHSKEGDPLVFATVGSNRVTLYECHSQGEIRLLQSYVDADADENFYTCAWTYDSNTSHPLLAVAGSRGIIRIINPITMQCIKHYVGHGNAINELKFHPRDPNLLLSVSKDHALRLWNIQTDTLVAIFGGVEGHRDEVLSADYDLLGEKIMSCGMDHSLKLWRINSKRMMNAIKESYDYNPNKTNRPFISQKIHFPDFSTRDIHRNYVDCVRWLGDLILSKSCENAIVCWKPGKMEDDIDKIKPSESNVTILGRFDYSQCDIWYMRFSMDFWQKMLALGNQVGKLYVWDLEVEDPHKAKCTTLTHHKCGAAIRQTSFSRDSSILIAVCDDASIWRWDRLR
Procedure, shortened: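 Readout was AlphaScreen emission at 615 nm after 680 nm excitation, with 10 μg/ml final each of streptavidin donor and nickel chelate acceptor beads, 1 h at RT in the dark. Beforehand, compound met the His-tagged EED(1-441) for 15 min and then biotinylated H3K27Me3(19-33) peptide for 30 min; both were added as 20 nM solutions, buffer 25 mM HEPES pH 8, Tween-20, BSA. Percent activity left was fitted to give IC50.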

[4] = system: malignant pleural mesothelioma (MPM) PDX model (FGFR1high; BAP1mut); experiment: Subcutaneous malignant pleural mesothelioma (MPM) PDX model (Example 20); format: in vivo, mice; conditions: Compound 73 100 mg/kg, Compound C 50 mg/kg, each orally every other day, 76 days; alone or combined
Experimental: as §1, §2, §3
The relative tumor volume (RTV) is calculated as: RTV=Vt/V1, wherein V1 is the tumor volume at the start of grouping and administration, and Vt is the tumor volume measured on the t day after administration. […]
Change of body weight (%)=(measured body weight-body weight at the start of grouping)/body weight at the start of grouping×100%. […]
as §7, with “group. […]” for “group.”

[5] = Compound 73 100 mg/kg orally once per day, alone or combined with Compound C 50 mg/kg every other day
[6] = Compound C 50 mg/kg orally every other day, Compound 73 50 mg/kg orally once per day, alone or combined

CC(C)N1Cc2cc(C(F)(F)F)ncc2-c2cnc(NCc3c(F)ccc4c3CCO4)n3cnc(c23)C1=O [Compound 73, 12-(((5-fluoro-2,3-dihydrobenzofuran-4-yl)methyl)amino)-4-isopropyl-7-(trifluoromethyl)-4,5-dihydro-3H-2,4,8,11,12a-pentaazabenzo[4,5]cycloocta[1,2,3-cd]inden-3-one]
T/C (%) @ D 39 [1, 5]: 59.73% | RTV @ D 39 [1, 5]: 4.76 ± 0.61 | T/C (%) @ D 39 [1, 6]: 67.7% | RTV @ D 39 [1, 6]: 5.39 ± 0.56 | antitumor activity (in words) ([1]; single agents, 39 days (FIG. 10)): moderate antitumor activity | RTV@ D 17 ([2]; LnCap xenograft, Compound 73 100 mg/kg orally once per day, Compound C 100 mg/kg/50 mg/kg orally every other day): 4.09 ± 0.75 | T/C(%) @ D 17 ([2]; LnCap xenograft, Compound 73 100 mg/kg, Compound C 100 mg/kg/50 mg/kg): 91.30% | T/C value ([2]; Compound C 100 mg/kg every other day day 1-9 then 50 mg/kg day 10-28, Compound 73 100 mg/kg once per day, orally, alone or combined): 91.30% | IC50 [3]: 0.5 nM | RTV @ D 76 [4]: 3.06 | T/C (%) @ D 76 [4]: 53%

— patent US20240316051A1, “A PHARMACEUTICAL COMBINATION AND USE THEREOF” (Ascentage Pharma (Suzhou) Co., Ltd., priority 2021, published 2024)
